Test results published in patent US20250145665A1, “MACROCYCLIC PEPTIDES USEFUL AS MODULATORS OF TNF ALPHA” (Bristol-Myers Squibb Company, priority 2023, published 2025).
Starred links: 1 amine or outer side, 2 acyl side, 3 side chain; linkers in the order of their positions; H or OH if unused. Positions of bridges follow the written chain, without caps; N, C: chain ends. Non-standard residues stand in square brackets, D forms with d. Residues, ends and D or L forms follow the SMILES beside them. *: point of attachment. Bip(4'-NHCO-C6H4-4-CH2COOH) = N[C@@H](Cc1ccc(-c2ccc(NC(=O)c3ccc(CC(=O)O)cc3)cc2)cc1)C(=O)O; X21 = N=C(NCCC[C@@H](N[*:1])C(=O)[*:2])NC[C@H](O)[C@@H](O)[C@@H](O)CO; dArg(ω-(2S)-2,3-diOHpropyl) = N=C(NCCC[C@@H](N)C(=O)O)NC[C@H](O)CO; Bip(4'-NH) = O=C([C@H](Cc1ccc(-c2ccc(N[*:3])cc2)cc1)N[*:1])[*:2]; dArg(ω-(3-HO-benzyl)) = N=C(NCCC[C@@H](N)C(=O)O)NCc1cccc(O)c1; Indazole3carbonyl(1-CH2COOH) = O=C(O)Cn1nc(C(=O)*)c2ccccc21; X69 = N=C(NCCC[C@@H](N[*:1])C(=O)[*:2])NCc1cccc(N)c1; Ala(imidazol-2-yl) = N[C@@H](Cc1ncc[nH]1)C(=O)O; dArg(ω-Bn) = N=C(NCCC[C@@H](N)C(=O)O)NCc1ccccc1; Ala(morpholin-4-yl) = N[C@@H](CN1CCOCC1)C(=O)O; Benzoyl(3-OCH2COOH) = O=C(O)COc1cccc(C(=O)*)c1; Bip = N[C@@H](Cc1ccc(-c2ccccc2)cc1)C(=O)O; 2Pal = N[C@@H](Cc1ccccn1)C(=O)O; 2Thi = N[C@@H](Cc1cccs1)C(=O)O; Sar = CNCC(=O)O

Molecular target: TNFα (Homo sapiens, UniProt P01375)
Sequence (P01375 77-233 limits assumed): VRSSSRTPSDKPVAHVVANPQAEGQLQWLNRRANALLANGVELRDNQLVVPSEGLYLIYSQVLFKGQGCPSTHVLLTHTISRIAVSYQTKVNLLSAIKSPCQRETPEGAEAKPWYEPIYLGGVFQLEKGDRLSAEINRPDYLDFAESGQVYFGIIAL
Test: TNF-Induced HEK-Blue Assay
Format: cell-based
Conditions: not given

| Compound | IC50 [nM] |
| --- | --- |
| CC(C)C[C@@H]1NC(=O)[C@H](CCCNC(=N)N)NC(=O)[C@H](C(C)C)NC(=O)[C@@H]2CCCN2C(=O)[C@H](C(C)C)NC(=O)[C@@H](CCCNC(=N)NCc2cccc(N)c2)NC(=O)[C@H](CC(=O)O)NC(=O)[C@@H]2CCCN2C(=O)CN(C)C(=O)[C@H](Cc2ccc(-c3ccc(NC(=O)c4nn(CC(=O)O)c5ccccc45)cc3)cc2)NC(=O)[C@H](Cc2ccc(-c3ccccc3)cc2)NC(=O)[C@H](CN2CCOCC2)NC(=O)CSC[C@@H](C(=O)NCC(N)=O)NC1=O [Example 636] ({CH2CO}-[Ala(morpholin-4-yl)][Bip][Bip(4'-NH)](Indazole3carbonyl(1-CH2COOH))[Sar]PD[X69]VPVRLCG-NH2; thioether N-13) | < 50 |
| CC[C@H](C)[C@@H]1NC(=O)[C@@H](CCCNC(=N)NCc2cccc(O)c2)NC(=O)[C@H](CC(=O)O)NC(=O)[C@@H]2CCCN2C(=O)CN(C)C(=O)[C@H](Cc2ccc(-c3ccc(NC(=O)c4nn(CC(=O)O)c5ccccc45)cc3)cc2)NC(=O)[C@H](Cc2ccc(-c3ccccc3)cc2)NC(=O)[C@H](CN2CCOCC2)NC(=O)CSC[C@@H](C(=O)NCC(N)=O)NC(=O)[C@H](CC(C)C)NC(=O)[C@H](Cc2cnc[nH]2)NC(=O)[C@H](C(C)C)NC(=O)[C@@H]2CCCN2C1=O [Example 637] ({CH2CO}-[Ala(morpholin-4-yl)][Bip][Bip(4'-NH)](Indazole3carbonyl(1-CH2COOH))[Sar]PD[dArg(ω-(3-HO-benzyl))]IPVHLCG-NH2; thioether N-13) | < 50 |
| CC(C)C[C@@H]1NC(=O)[C@H](Cc2cccs2)NC(=O)[C@H](C(C)C)NC(=O)[C@@H]2CCCN2C(=O)[C@H](C(C)C)NC(=O)[C@@H](CCCNC(=N)NCc2ccccc2)NC(=O)[C@H](CC(=O)O)NC(=O)[C@H](Cc2ccccn2)NC(=O)CN(C)C(=O)[C@H](Cc2ccc(-c3ccc(NC(=O)c4nn(CC(=O)O)c5ccccc45)cc3)cc2)NC(=O)[C@H](Cc2ccc(-c3ccccc3)cc2)NC(=O)[C@H](CN2CCOCC2)NC(=O)CSC[C@@H](C(=O)NCC(N)=O)NC1=O [Example 638] ({CH2CO}-[Ala(morpholin-4-yl)][Bip][Bip(4'-NH)](Indazole3carbonyl(1-CH2COOH))[Sar][2Pal]D[dArg(ω-Bn)]VPV[2Thi]LCG-NH2; thioether N-13) | < 50 |
| CC(C)C[C@@H]1NC(=O)[C@H](Cc2cccs2)NC(=O)[C@H](C(C)C)NC(=O)[C@@H]2CCCN2C(=O)[C@H](C(C)C)NC(=O)[C@@H](CCCNC(=N)NC[C@H](O)CO)NC(=O)[C@H](CC(=O)O)NC(=O)[C@H](Cc2ccccn2)NC(=O)CN(C)C(=O)[C@H](Cc2ccc(-c3ccc(NC(=O)c4nn(CC(=O)O)c5ccccc45)cc3)cc2)NC(=O)[C@H](Cc2ccc(-c3ccccc3)cc2)NC(=O)[C@H](CN2CCOCC2)NC(=O)CSC[C@@H](C(=O)NCC(N)=O)NC1=O [Example 639] ({CH2CO}-[Ala(morpholin-4-yl)][Bip][Bip(4'-NH)](Indazole3carbonyl(1-CH2COOH))[Sar][2Pal]D[dArg(ω-(2S)-2,3-diOHpropyl)]VPV[2Thi]LCG-NH2; thioether N-13) | < 50 |
| CC(C)C[C@@H]1NC(=O)[C@H](Cc2cccs2)NC(=O)[C@H](C(C)C)NC(=O)[C@@H]2CCCN2C(=O)[C@H](C(C)C)NC(=O)[C@@H](CCCNC(=N)NC[C@H](O)[C@@H](O)[C@@H](O)CO)NC(=O)[C@H](CC(=O)O)NC(=O)[C@H](Cc2ccccn2)NC(=O)CN(C)C(=O)[C@H](Cc2ccc(-c3ccc(NC(=O)c4nn(CC(=O)O)c5ccccc45)cc3)cc2)NC(=O)[C@H](Cc2ccc(-c3ccccc3)cc2)NC(=O)[C@H](CN2CCOCC2)NC(=O)CSC[C@@H](C(=O)NCC(N)=O)NC1=O [Example 640] ({CH2CO}-[Ala(morpholin-4-yl)][Bip][Bip(4'-NH)](Indazole3carbonyl(1-CH2COOH))[Sar][2Pal]D[X21]VPV[2Thi]LCG-NH2; thioether N-13) | 50 to 200 |

Same assay, conditions: HEK-Blue-CD40L cells, NF-kB-driven secreted alkaline phosphatase reporter; TNFα 0.5 ng/ml; 18 h; read-out: TNF induced HEK-Blue assay IC50 value

| IC50 [nM] | Compound |
| --- | --- |
| 50 to 200 | CC(C)C[C@@H]1NC(=O)[C@H](Cc2ncc[nH]2)NC(=O)[C@H](C(C)C)NC(=O)[C@@H]2CCCN2C(=O)[C@H](C(C)C)NC(=O)[C@@H](CCCNC(=N)NCc2ccccc2)NC(=O)[C@H](CC(=O)O)NC(=O)[C@H](Cc2ccccn2)NC(=O)CN(C)C(=O)[C@H](Cc2ccc(-c3ccc(NC(=O)c4cccc(OCC(=O)O)c4)cc3)cc2)NC(=O)[C@H](Cc2ccc(-c3ccccc3)cc2)NC(=O)[C@H](CN2CCOCC2)NC(=O)CSC[C@@H](C(=O)NCC(N)=O)NC1=O [Example 641] ({CH2CO}-[Ala(morpholin-4-yl)][Bip][Bip(4'-NH)](Benzoyl(3-OCH2COOH))[Sar][2Pal]D[dArg(ω-Bn)]VPV[Ala(imidazol-2-yl)]LCG-NH2; thioether N-13) |
| 200 to 2000 | CC(C)C[C@@H]1NC(=O)[C@H](Cc2ncc[nH]2)NC(=O)[C@H](C(C)C)NC(=O)[C@@H]2CCCN2C(=O)[C@H](C(C)C)NC(=O)[C@@H](CCCNC(=N)NCc2ccccc2)NC(=O)[C@H](CC(=O)O)NC(=O)[C@H](Cc2ccccn2)NC(=O)CN(C)C(=O)[C@H](Cc2ccc(-c3ccc(NC(=O)c4ccc(CC(=O)O)cc4)cc3)cc2)NC(=O)[C@H](Cc2ccc(-c3ccccc3)cc2)NC(=O)[C@H](CN2CCOCC2)NC(=O)CSC[C@@H](C(=O)NCC(N)=O)NC1=O [Example 642] ({CH2CO}-[Ala(morpholin-4-yl)][Bip][Bip(4'-NHCO-C6H4-4-CH2COOH)][Sar][2Pal]D[dArg(ω-Bn)]VPV[Ala(imidazol-2-yl)]LCG-NH2; thioether N-13) |
